Measurements from patent publication EP2308883A1, “New derivatives of thieno[2,3-b]pyridine and 5,6,7,8 tetrahydrothieno[2,3 b]quinoline in particular useful in the treatment of malaria” (priority 2009, dated 2011).
Where two headings read alike, the source gives them in different places.

Columns and labels:
Assay in all cases: Species specificity: recombinant tagged GSK-3 orthologue kinase assay
Assay type in all cases: biochemical
[1] = target: T1, GSK-3 (Plasmodium knowlesi, UniProt A0A679KU36)
T1 sequence (A0A679KU36 1-473): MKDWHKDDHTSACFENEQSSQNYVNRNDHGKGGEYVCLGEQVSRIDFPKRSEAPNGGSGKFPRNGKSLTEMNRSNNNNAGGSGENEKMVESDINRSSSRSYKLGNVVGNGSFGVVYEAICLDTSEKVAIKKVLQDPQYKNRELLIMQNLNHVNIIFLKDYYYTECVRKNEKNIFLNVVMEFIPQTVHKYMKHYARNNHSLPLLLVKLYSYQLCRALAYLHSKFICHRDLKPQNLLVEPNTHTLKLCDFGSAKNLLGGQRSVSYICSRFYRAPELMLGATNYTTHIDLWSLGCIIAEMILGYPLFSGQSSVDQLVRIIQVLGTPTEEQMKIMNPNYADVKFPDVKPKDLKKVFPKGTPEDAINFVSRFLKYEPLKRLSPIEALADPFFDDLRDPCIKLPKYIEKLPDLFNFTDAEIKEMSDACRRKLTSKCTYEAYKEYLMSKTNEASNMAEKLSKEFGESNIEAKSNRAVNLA

[2] = target: T2, GSK-3 (Cryptosporidium parvum, UniProt A3FQN0)
T2 sequence (A3FQN0 1-433): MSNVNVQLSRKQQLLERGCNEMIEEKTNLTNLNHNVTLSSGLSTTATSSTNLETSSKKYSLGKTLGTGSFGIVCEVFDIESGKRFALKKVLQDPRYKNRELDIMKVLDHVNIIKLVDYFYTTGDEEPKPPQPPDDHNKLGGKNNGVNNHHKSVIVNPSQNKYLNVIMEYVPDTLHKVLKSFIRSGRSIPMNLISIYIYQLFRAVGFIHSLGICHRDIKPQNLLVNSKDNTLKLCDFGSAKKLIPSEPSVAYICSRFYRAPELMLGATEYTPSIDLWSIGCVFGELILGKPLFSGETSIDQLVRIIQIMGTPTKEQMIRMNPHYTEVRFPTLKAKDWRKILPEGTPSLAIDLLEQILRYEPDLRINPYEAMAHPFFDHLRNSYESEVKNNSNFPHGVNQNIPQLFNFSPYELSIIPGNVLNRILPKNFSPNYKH

[3] = target: T3, GSK-3 (Trypanosoma cruzi, UniProt Q4E1X0)
T3 sequence (Q4E1X0 1-353): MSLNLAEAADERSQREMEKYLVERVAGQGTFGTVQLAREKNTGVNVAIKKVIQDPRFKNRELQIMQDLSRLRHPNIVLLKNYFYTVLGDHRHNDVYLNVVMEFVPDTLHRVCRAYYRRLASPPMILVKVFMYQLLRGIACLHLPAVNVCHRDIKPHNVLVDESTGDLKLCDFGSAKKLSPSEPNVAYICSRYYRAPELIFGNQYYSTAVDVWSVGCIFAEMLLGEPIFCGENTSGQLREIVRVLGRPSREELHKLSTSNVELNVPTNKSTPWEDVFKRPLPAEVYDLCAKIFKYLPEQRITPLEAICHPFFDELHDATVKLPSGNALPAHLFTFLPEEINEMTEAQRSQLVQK

[4] = target: T4, GSK-3 (Leishmania donovani, UniProt A6N857)
T4 sequence (A6N857 1-355): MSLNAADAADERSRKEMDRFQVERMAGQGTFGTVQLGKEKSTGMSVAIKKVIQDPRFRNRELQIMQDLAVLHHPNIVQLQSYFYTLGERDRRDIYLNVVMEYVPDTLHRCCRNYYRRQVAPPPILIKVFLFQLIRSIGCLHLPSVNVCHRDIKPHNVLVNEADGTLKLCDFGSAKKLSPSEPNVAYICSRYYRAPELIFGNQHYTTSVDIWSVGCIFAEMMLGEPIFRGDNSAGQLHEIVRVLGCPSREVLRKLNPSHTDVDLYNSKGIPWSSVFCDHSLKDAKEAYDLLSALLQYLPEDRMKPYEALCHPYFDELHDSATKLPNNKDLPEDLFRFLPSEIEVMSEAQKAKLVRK

[5] = target: T5, GSK- 3 β (Homo sapiens, UniProt P49841); conditions: calculated from dose-response curves; -(100) taken as no inhibition at 100
T5 construct: made in house
Excerpt: (§1) Given the strong conservation of GSK-3 across evolution and the surprising selectivity of the compounds according to the present invention towards PfGSK-3 versus mammalian GSK-3, a selection of 12 GSK-3 orthologues of various species chosen on the "tree of life" analyzed. The species belong to the Apicomplexa (P. falciparum, P. vivax, P. knowlesi and P. berghei (Gardner, M.J. et al. Genome sequence of the human malaria parasite Plasmodium falciparum. Nature 419, 498-511 (2002); Carlton, J.M. et al. Comparative genomics of the neglected human malaria parasite Plasmodium vivax. Nature 455, 799-803 (2008); Pain, A. et al. The genome of the simian and human malaria parasite Plasmodium knowlesi. Nature 455, 799-803 (2008).). Toxoplasma gondii (Qin, C.L., Tang, J. and Kim, K. Cloning and in vitro expression of TPK3, a Toxoplasma gondii homologue of shaggy/glycogen synthase kinase-3 kinases. Mol. Biochem. Parasitol. 93, 273-283 (1998)), Cryptosporidium parvum.
(§2) Following PCR amplification from cDNA libraries or direct synthesis based on databases sequences, the GSK-3 genes were inserted in appropriate expression vectors and recombinant, tagged kinases were expressed, affinity purified and assayed in the presence of up to 10-100µM of each compound of formula (I) according to the present invention and a selection of the PfGSK-3 inhibitors.

[6] = target: T6, GSK-3 (Dictyostelium discoideum, UniProt P51136)
T6 construct: made in house
Excerpt: as §1, §2

[7] = target: T7, GSK-3 (Plasmodium falciparum, UniProt O77344)
T7 construct: made in house
Excerpt: as §1, §2

[8] = target: T8, GSK-3 α (Homo sapiens, UniProt P49840); conditions: calculated from dose-response curves; -(100) taken as no inhibition at 100
T8 construct: made in house
Excerpt: as §1, §2

[9] = target: GSK-3 α/β; conditions: calculated from dose-response curves; -(100) taken as no inhibition at 100; read-out: IC50 Sus scrofa (GSK-3 α/β)
Excerpt: as §1, §2

[10] = read-out: IC50 Plasmodium knowlesi; calculated from dose-response curves
[11] = read-out: IC50 Trypanopsoma cruzi; calculated from dose-response curves; -(100) taken as no inhibition at 100
[12] = read-out: IC50 Leishmania donovani; calculated from dose-response curves
[13] = calculated from dose-response curves; read-out: IC50 Plasmodium knowlesi
[14] = calculated from dose-response curves, -(100) taken as no inhibition at 100, read-out: IC50 Cryptosporidium parvum
[15] = calculated from dose-response curves; -(100) taken as no inhibition at 100; read-out: IC50 Trypanopsoma cruzi
[16] = calculated from dose-response curves; read-out: IC50 Leishmania donovani

T7 sequence (O77344 entry or part of it): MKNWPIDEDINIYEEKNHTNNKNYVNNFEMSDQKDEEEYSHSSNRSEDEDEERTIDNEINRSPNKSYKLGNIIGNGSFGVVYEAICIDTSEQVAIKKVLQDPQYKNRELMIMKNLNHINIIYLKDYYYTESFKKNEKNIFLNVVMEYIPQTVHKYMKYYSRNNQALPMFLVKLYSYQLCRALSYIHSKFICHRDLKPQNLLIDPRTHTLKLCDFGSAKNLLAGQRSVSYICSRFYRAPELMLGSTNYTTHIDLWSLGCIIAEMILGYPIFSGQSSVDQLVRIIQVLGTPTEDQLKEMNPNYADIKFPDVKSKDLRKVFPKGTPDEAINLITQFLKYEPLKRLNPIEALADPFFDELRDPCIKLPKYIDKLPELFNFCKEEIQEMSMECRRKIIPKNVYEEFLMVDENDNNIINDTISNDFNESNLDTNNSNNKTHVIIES
T8 sequence (P49840 whole entry): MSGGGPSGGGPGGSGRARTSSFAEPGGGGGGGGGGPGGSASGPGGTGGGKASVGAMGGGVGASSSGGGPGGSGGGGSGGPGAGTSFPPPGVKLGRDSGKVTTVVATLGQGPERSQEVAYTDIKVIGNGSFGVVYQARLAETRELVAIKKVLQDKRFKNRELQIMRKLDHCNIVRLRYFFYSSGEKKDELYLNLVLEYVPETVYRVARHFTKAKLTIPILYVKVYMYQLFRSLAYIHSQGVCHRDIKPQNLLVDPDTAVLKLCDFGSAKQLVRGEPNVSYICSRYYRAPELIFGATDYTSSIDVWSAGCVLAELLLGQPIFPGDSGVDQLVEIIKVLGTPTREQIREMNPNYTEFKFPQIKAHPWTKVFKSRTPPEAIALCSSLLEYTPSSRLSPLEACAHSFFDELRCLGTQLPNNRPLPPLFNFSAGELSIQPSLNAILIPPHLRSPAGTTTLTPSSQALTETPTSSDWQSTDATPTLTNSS
T6 sequence (P51136 whole entry): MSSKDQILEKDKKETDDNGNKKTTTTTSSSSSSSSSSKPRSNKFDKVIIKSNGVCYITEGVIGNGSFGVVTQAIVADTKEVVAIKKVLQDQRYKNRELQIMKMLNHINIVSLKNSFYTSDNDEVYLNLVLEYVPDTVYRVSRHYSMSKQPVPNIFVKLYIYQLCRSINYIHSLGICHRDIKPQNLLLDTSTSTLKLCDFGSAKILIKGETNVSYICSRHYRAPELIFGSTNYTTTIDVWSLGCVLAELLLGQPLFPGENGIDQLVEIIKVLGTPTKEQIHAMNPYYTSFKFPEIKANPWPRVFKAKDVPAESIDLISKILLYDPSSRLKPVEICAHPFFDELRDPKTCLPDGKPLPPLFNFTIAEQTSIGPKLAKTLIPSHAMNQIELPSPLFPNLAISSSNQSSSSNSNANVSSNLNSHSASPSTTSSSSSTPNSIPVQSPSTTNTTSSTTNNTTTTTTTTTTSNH
T5 sequence (P49841 whole entry): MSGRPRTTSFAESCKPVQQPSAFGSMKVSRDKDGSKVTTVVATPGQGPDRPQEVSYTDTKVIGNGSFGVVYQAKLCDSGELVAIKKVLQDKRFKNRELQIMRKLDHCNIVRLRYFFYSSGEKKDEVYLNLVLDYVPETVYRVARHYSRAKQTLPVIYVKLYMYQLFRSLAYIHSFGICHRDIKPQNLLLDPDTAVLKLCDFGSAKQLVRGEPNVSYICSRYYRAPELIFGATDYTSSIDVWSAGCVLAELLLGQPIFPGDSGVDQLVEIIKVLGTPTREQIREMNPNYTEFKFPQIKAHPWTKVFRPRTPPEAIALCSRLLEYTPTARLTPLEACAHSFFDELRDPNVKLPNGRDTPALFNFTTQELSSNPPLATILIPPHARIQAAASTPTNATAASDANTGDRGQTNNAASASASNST

SMILES	IC50 [1, 10]	IC50 [2]	IC50 [3, 11]	IC50 [4, 12]	IC50 [5]	IC50 [6]	IC50 [7]	IC50 [8]	IC50 [9]	IC50 [1, 13]	IC50 [2, 14]	IC50 [3, 15]	IC50 [4, 16]	IC50 ([7]; read-out: IC50 Plasmodium falciparum, calculated from dose-response curves)
N#Cc1c(N)nc2sc(C(=O)c3cccc(Cl)c3)c(N)c2c1-c1ccccc1Cl [Compound 22, 3,6-diamino-2-(3-chlorobenzoyl)-4-(2-chlorophenyl)thieno[2,3-b]pyridine-5-carbonitrile]	2.45 µM	> 100 µM	> 100 µM	72 µM	3.3 µM	> 10 µM	0.41 µM	> 100 µM	> 10 µM	–	–	–	–	–
COc1ccccc1-c1c(C#N)c(N)nc2sc(C(=O)c3ccccc3)c(N)c12 [Compound 2, 3,6-diamino-2-benzoyl-4-(2-methoxyphenyl)thieno[2,3-b]pyridine-5-carbonitrile]	95 µM	> 100 µM	> 100 µM	80 µM	–	> 100 µM	7.8 µM	> 100 µM	> 100 µM	–	–	–	–	–
N#Cc1cccc(C(=O)c2sc3nc(N)c(C#N)c(-c4ccccc4Cl)c3c2N)c1 [Compound 26, 3,6-diamino-4-(2-chlorophenyl)-2-(3-cyanobenzoyl)thieno[2,3-b]pyridine-5-carbonitrile]	–	–	–	–	8.1 µM	> 100 µM	0.21 µM	> 25 µM	22 µM	6.5 µM	> 100 µM	> 100 µM	100 µM	–
N#Cc1c(N)nc2sc(C(=O)c3cccc(Cl)c3)c(N)c2c1-c1ccccc1I [Compound 14, 3,6-diamino-2-(3-chlorobenzoyl)-4-(2-iodophenyl)thieno[2,3-b]pyridine-5-carbonitrile]	–	–	–	–	50 µM	> 100 µM	–	> 100 µM	> 100 µM	2.75 µM	> 100 µM	> 100 µM	70 µM	101 µM
N#Cc1c(N)nc2sc(C(=O)c3cccc(Cl)c3)c(N)c2c1-c1ccccc1Br [Compound 20, 3,6-diamino-4-(2-bromophenyl)-2-(3-chlorobenzoyl)thieno[2,3-b]pyridine-5-carbonitrile]	–	–	–	–	4 µM	80 µM	0.47 µM	> 100 µM	5.6 µM	1.45 µM	> 100 µM	> 100 µM	44 µM	–
